Test results as given in BigSolDB 2.1.

O=c1ccc2ccccc2o1
solubility (mole fraction)
Conditions	278.15 K	283.15 K	288.15 K	293.15 K	298.15 K	303.15 K	308.15 K	313.15 K	318.15 K
in cyclohexane	–	0.00162	0.00236	0.00321	0.00428	0.00607	0.00824	0.0111	0.0144
in ethanol	0.0071	0.011	0.0205	0.0331	0.0533	0.0869	0.138	0.222	0.357
in isopropanol	0.00371	0.00604	0.0108	0.0204	0.0351	0.0604	0.101	0.171	0.282
in methanol	0.012	0.0182	0.0303	0.05	0.0802	0.122	0.199	0.32	0.484
in n-hexane	0.000862	0.00118	0.00169	0.0024	0.00319	0.00421	0.00574	0.00746	0.00962
in n-propanol	0.00521	0.00952	0.0172	0.0282	0.0469	0.0781	0.124	0.202	0.33
